Measurements taken from patent US20230355568A1, “THERAPEUTIC AGENT FOR MALIGNANT MESOTHELIOMA AND METHOD FOR SELECTING PATIENT HAVING MALIGNANT MESOTHELIOMA” (National University Corporation Tokai National Higher …, priority 2020, published 2023).
Where a name gives a salt, the structure may show the parent alone. Bridge positions count the residues as written; N and C are the ends. Square brackets hold non-standard residues; d marks the D form. Peptide text beside a SMILES is read from it. Orn = NCCC[C@H](N)C(=O)O; Mpa = O=C(O)CCS

Columns and labels:
[1] = system: malignant mesothelioma cell line NCI-H2052; assay: WST-1 assay with oxytocin receptor inhibitor, NCI-H2052; assay type: cell-based; settings: culture five days, Cligosiban 0-25 μM, other inhibitors 0-80 μM (FIG. 3, FIG. 4)
Protocol: (§1) The procedure is illustrated below. • (1) Cells of malignant mesothelioma cell line NCI-H2052 were seeded on a dish and cultured for one day. • (2) Cligosiban was administered to the dish at a concentration of 0, 5, 10, 15, 20, or 25 μM. • (3) After culture for five days, evaluation with WST-1 assay was performed. The WST-1 assay is an assay method to administer cell proliferation test agent WST-1 (product number: 11644807001, purchased from Roche) and evaluate cell proliferation by a colorimetric method.
The same procedure as that in Example 3 was applied except that the oxytocin receptor inhibitor was replaced with OT-R antagonist 1 (purchased from MedChemExpress), which was administered to the dish at a concentration of 0, 20, 40, 60, or 80 μM.
The same procedure as that in Example 5 was applied except that the oxytocin receptor inhibitor was replaced with L368,899 hydrochloride (purchased from MedChemExpress).
The same procedure as that in Example 5 was applied except that the oxytocin receptor inhibitor was replaced with Atosiban (purchased from MedChemExpress).

[2] = system: malignant mesothelioma cell line NCI-2373; assay: WST-1 assay with oxytocin receptor inhibitor, NCI-2373; assay type: cell-based; settings: culture five days, Cligosiban 0-60 μM, other inhibitors 0-80 μM (FIG. 3, FIG. 4)
Protocol: as §1
The same procedure as that in Example 3 was applied except that the malignant mesothelioma cell line was replaced with NCI-2373 (purchased from ATCC) and Cligosiban was administered to the dish at a concentration of 0, 20, 30, 40, 50, or 60 μM.
The same procedure as that in Example 4 was applied except that the oxytocin receptor inhibitor was replaced with OT-R antagonist 1, which was administered to the dish at a concentration of 0, 20, 40, 60, or 80 μM.
The same procedure as that in Example 6 was applied except that the oxytocin receptor inhibitor was replaced with L368,899 hydrochloride.
The same procedure as that in Example 6 was applied except that the oxytocin receptor inhibitor was replaced with Atosiban.

[3] = system: malignant mesothelioma cell line NCI-H2052; assay: Proliferation suppression of malignant mesothelioma cells with Cligosiban using Xenograft model; assay type: in vivo; settings: NCI-H2052 subcutaneous in nude mice, Cligosiban oral 60 mg/kg every other day, 10 doses, vs no Cligosiban (FIG. 1)
Protocol: (§2) The procedure is illustrated below. • (1) 5.0×10^6 cells of malignant mesothelioma cell line NCI-H2052 (purchased from ATCC) were administered to the subcutaneous left buttock of nude mice (BALB/c nude (nu/nu) female, 6 to 8 weeks old: purchased from Charles River Japan). • (2) After 3 days from the subcutaneous administration, oral administration of Cligosiban (purchased from MedChemExpress) was started, and the oral administration was applied at each dose of 60 mg/kg every other day for a total of 10 doses. • (3) After one week from the tenth oral administration, the nude mice were dissected, and the subcutaneous tumor weights were measured.
The same procedure as that in Example 1 was applied except that no Cligosiban was administered.

[4] = system: malignant mesothelioma cell line NCI-H2373; assay: WST-1 assay, combined use of Cligosiban and cisplatin, NCI-H2373; assay type: cell-based; settings: Cligosiban 45 μM and/or cisplatin 6 μM, culture five days (FIG. 8)
Protocol: (§3) The procedure is illustrated below. • (1) Cells of malignant mesothelioma cell line NCI-H2373 were seeded on a dish and cultured for one day. • (2) Cligosiban 45 μM and cisplatin (product number 033-20091, purchased from FUJIFILM Wako Pure Chemical Corporation) 6 μM were administered to the dish. • (3) After culture for five days, evaluation with WST-1 assay was performed.
The same procedure as that in Example 21 was applied except that only Cligosiban 45 μM was administered.
The same procedure as that in Example 21 was applied except that neither Cligosiban 45 μM nor cisplatin 6 μM was administered.
The same procedure as that in Example 21 was applied except that only cisplatin 6 μM was administered.

[5] = system: malignant mesothelioma cell line NCI-H2052; assay: WST-1 assay, combined use of Cligosiban and cisplatin, NCI-H2052; assay type: cell-based; settings: Cligosiban 15 μM and/or cisplatin 0.8 μM, culture five days (FIG. 8)
Protocol: as §3
The same procedure as that in Example 21 was applied except that the malignant mesothelioma cell line was replaced with NCI-H2052 and that Cligosiban 15 μM and cisplatin 0.8 μM were administered to the dish.
The same procedure as that in Example 22 was applied except that the malignant mesothelioma cell line was replaced with NCI-H2052 and that Cligosiban 15 μM was administered.
The same procedure as that in Example 23 was applied except that neither Cligosiban 15 μM nor cisplatin 0.8 μM was administered.
The same procedure as that in Example 23 was applied except that only cisplatin 0.8 μM was administered.

[6] = system: malignant mesothelioma cell line NCI-H2052; assay: Xenograft model: cisplatin and pemetrexed, Cligosiban, and combined use; assay type: in vivo; settings: NCI-H2052 subcutaneous in nude mice; Cligosiban oral 60 mg/kg every other day, 10 doses from day 7; cisplatin 2 mg/kg and pemetrexed 25 mg/kg once tail vein day 7; measured two days after tenth dose (FIG. 9)
Protocol: as §2, with “After 7” for “After 3”, “After 7 days from the subcutaneous administration, cisplatin (product number 033-20091, purchased from FUJIFILM Wako Pure Chemical Corporation) 2 mg/kg and pemetrexed disodium heptahydrate (product number 161-26263, purchased from FUJIFILM Wako Pure Chemical Corporation) 25 mg/kg were once injected into a tail vein. • (4) After two days” for “After one week”, “oral administration of Cligosiban,” for “oral administration,”
The same procedure as that in Example 25 was applied except that neither cisplatin nor pemetrexed was administered.
The same procedure as that in Example 25 was applied except that neither Cligosiban nor cisplatin and pemetrexed was administered.
The same procedure as that in Example 25 was applied except that Cligosiban was not administered.

| SMILES | proliferation of malignant mesothelioma cells (WST-1 assay) [1] | proliferation of malignant mesothelioma cells (WST-1 assay) [2] | subcutaneous tumor weight ([3]; from day 3, measured one week after tenth dose) | growth of the subcutaneous tumor [3] | proliferation of malignant mesothelioma cells (WST-1 assay) [4] | proliferation of malignant mesothelioma cells (WST-1 assay) [5] | subcutaneous tumor weight [6] |
| --- | --- | --- | --- | --- | --- | --- | --- |
| Cc1ccccc1N1CCN(S(=O)(=O)C[C@@]23CC[C@H](CC2NC(=O)[C@H](N)CCS(C)(=O)=O)C3(C)C)CC1 (stereo partly drawn) [L368,899 hydrochloride] | proliferation of malignant mesothelioma cells was suppressed | proliferation of malignant mesothelioma cells was suppressed |  |  |  |  |  |
| CO/N=C1/C[C@@H](C(=O)NC[C@@H](O)c2ccccc2)N(C(=O)c2ccc(-c3ccccc3C)cc2)C1 [OT-R antagonist 1] | proliferation of malignant mesothelioma cells was suppressed | proliferation of malignant mesothelioma cells was suppressed |  |  |  |  |  |
| COCc1nnc(N2CC(Oc3ccc(F)cc3Cl)C2)n1-c1ccc(OC)nc1 [Cligosiban] | more suppresses proliferation of malignant mesothelioma cells | more suppresses proliferation of malignant mesothelioma cells | smaller than that of Comparative example 1 | suppresses growth of the subcutaneous tumor statistically, significantly compared to Comparative example 1 | more suppresses proliferation of malignant mesothelioma cells than Comparative example 11 and Comparative example 13 | more suppresses proliferation of malignant mesothelioma cells than Comparative example 11 and Comparative example 13 | smaller than the subcutaneous tumor weight of Comparative example 16 |
| N.N.[Cl][Pt][Cl] [cisplatin] |  |  |  |  | more suppresses proliferation of malignant mesothelioma cells than Comparative example 11 and Comparative example 13 | more suppresses proliferation of malignant mesothelioma cells than Comparative example 11 and Comparative example 13 |  |
| CCOc1ccc(C[C@H]2NC(=O)CCSSC[C@@H](C(=O)N3CCC[C@H]3C(=O)N[C@@H](CCCN)C(=O)NCC(N)=O)NC(=O)[C@H](CC(N)=O)NC(=O)[C@H]([C@@H](C)O)NC(=O)[C@H]([C@@H](C)CC)NC2=O)cc1 [Atosiban] ([Mpa][dY](Et)ITNCP[Orn]G-NH2; disulfide 1-6) | proliferation of malignant mesothelioma cells was suppressed | proliferation of malignant mesothelioma cells was suppressed |  |  |  |  |  |
